In ChEMBL document CHEMBL3525998, “Metabolism of saikosaponin a in rats: diverse oxidations on the aglycone moiety in liver and intestine in addition to hydrolysis of glycosidic bonds” (Drug Metab Dispos, 2013):

What was measured:
Assay type in all cases: ADME, organism-based; call rule not given here
[1] = Drug excretion in Sprague-Dawley rat bile at 50 mg/kg, po administered through gavage by LC-DAD-IT-TOF-MS analysis; set-up: dose 50 mg/kg, route oral; conditions: in vivo
[2] = Drug excretion in Sprague-Dawley rat urine at 50 mg/kg, po administered through gavage by LC-DAD-IT-TOF-MS analysis; set-up: dose 50 mg/kg, route oral; conditions: in vivo
[3] = species: Rattus norvegicus; assay: Drug metabolism in Sprague-Dawley rat assessed as retention time by LC-DAD-IT-TOF-MS analysis
[4] = Drug excretion in Sprague-Dawley rat feces assessed as metabolite 3-keto-saikogenin f level at 15 mg/kg, iv by LC-DAD-IT-TOF-MS analysis; set-up: dose 15 mg/kg, route intravenous; conditions: in vivo
[5] = Drug excretion in Sprague-Dawley rat bile assessed as metabolite delta1-saikogenin f level at 15 mg/kg, iv by LC-DAD-IT-TOF-MS analysis; set-up: dose 15 mg/kg, route intravenous; conditions: in vivo
[6] = Drug excretion in Sprague-Dawley rat feces assessed as metabolite delta1-saikogenin f level at 15 mg/kg, iv by LC-DAD-IT-TOF-MS analysis; set-up: dose 15 mg/kg, route intravenous; conditions: in vivo
[7] = tested on: Plasma; assay: Drug metabolism in Sprague-Dawley rat plasma assessed as metabolite saikogenin f-27-oic acid formation at 15 mg/kg, iv by LC-DAD-IT-TOF-MS analysis; set-up: dose 15 mg/kg, route intravenous; conditions: in vivo
[8] = Drug excretion in Sprague-Dawley rat feces assessed as metabolite saikogenin f-27-oic acid level at 15 mg/kg, iv by LC-DAD-IT-TOF-MS analysis; set-up: dose 15 mg/kg, route intravenous; conditions: in vivo
[9] = Drug excretion in Sprague-Dawley rat feces at 50 mg/kg, po administered through gavage by LC-DAD-IT-TOF-MS analysis; set-up: dose 50 mg/kg, route oral; conditions: in vivo
[10] = tested on: Plasma; assay: Drug metabolism in Sprague-Dawley rat plasma assessed as metabolite hydroxysaikosaponin a formation at 50 mg/kg, po administered through gavage by LC-DAD-IT-TOF-MS analysis; set-up: dose 50 mg/kg, route oral; conditions: in vivo
[11] = Drug excretion in Sprague-Dawley rat bile assessed as metabolite hydroxysaikosaponin a level at 50 mg/kg, po administered through gavage by LC-DAD-IT-TOF-MS analysis; set-up: dose 50 mg/kg, route oral; conditions: in vivo
[12] = Drug excretion in Sprague-Dawley rat urine assessed as metabolite hydroxysaikosaponin a level at 50 mg/kg, po administered through gavage by LC-DAD-IT-TOF-MS analysis; set-up: dose 50 mg/kg, route oral; conditions: in vivo
[13] = tested on: Plasma; assay: Drug metabolism in Sprague-Dawley rat plasma assessed as metabolite prosaikogenin f formation at 50 mg/kg, po administered through gavage by LC-DAD-IT-TOF-MS analysis; set-up: dose 50 mg/kg, route oral; conditions: in vivo
[14] = Drug excretion in Sprague-Dawley rat bile assessed as metabolite prosaikogenin f level at 50 mg/kg, po administered through gavage by LC-DAD-IT-TOF-MS analysis; set-up: dose 50 mg/kg, route oral; conditions: in vivo
[15] = Drug excretion in Sprague-Dawley rat feces assessed as metabolite prosaikogenin f level at 50 mg/kg, po administered through gavage by LC-DAD-IT-TOF-MS analysis; set-up: dose 50 mg/kg, route oral; conditions: in vivo
[16] = Drug excretion in Sprague-Dawley rat bile assessed as metabolite saikogenin f level at 50 mg/kg, po administered through gavage by LC-DAD-IT-TOF-MS analysis; set-up: dose 50 mg/kg, route oral; conditions: in vivo
[17] = Drug excretion in Sprague-Dawley rat urine assessed as metabolite saikogenin f level at 50 mg/kg, po administered through gavage by LC-DAD-IT-TOF-MS analysis; set-up: dose 50 mg/kg, route oral; conditions: in vivo
[18] = Drug excretion in Sprague-Dawley rat feces assessed as metabolite saikogenin f level at 50 mg/kg, po administered through gavage by LC-DAD-IT-TOF-MS analysis; set-up: dose 50 mg/kg, route oral; conditions: in vivo
[19] = tested on: Plasma; assay: Drug metabolism in Sprague-Dawley rat plasma assessed as metabolite 3-keto-saikogenin f formation at 50 mg/kg, po administered through gavage by LC-DAD-IT-TOF-MS analysis; set-up: dose 50 mg/kg, route oral; conditions: in vivo
[20] = Drug excretion in Sprague-Dawley rat urine assessed as metabolite 3-keto-saikogenin f level at 50 mg/kg, po administered through gavage by LC-DAD-IT-TOF-MS analysis; set-up: dose 50 mg/kg, route oral; conditions: in vivo
[21] = Drug excretion in Sprague-Dawley rat feces assessed as metabolite 3-keto-saikogenin f level at 50 mg/kg, po administered through gavage by LC-DAD-IT-TOF-MS analysis; set-up: dose 50 mg/kg, route oral; conditions: in vivo
[22] = tested on: Plasma; assay: Drug metabolism in Sprague-Dawley rat plasma assessed as metabolite delta1-saikogenin f formation at 50 mg/kg, po administered through gavage by LC-DAD-IT-TOF-MS analysis; set-up: dose 50 mg/kg, route oral; conditions: in vivo
[23] = Drug excretion in Sprague-Dawley rat bile assessed as metabolite delta1-saikogenin f level at 50 mg/kg, po administered through gavage by LC-DAD-IT-TOF-MS analysis; set-up: dose 50 mg/kg, route oral; conditions: in vivo
[24] = Drug excretion in Sprague-Dawley rat urine assessed as metabolite delta1-saikogenin f level at 50 mg/kg, po administered through gavage by LC-DAD-IT-TOF-MS analysis; set-up: dose 50 mg/kg, route oral; conditions: in vivo
[25] = Drug excretion in Sprague-Dawley rat feces assessed as metabolite delta1-saikogenin f level at 50 mg/kg, po administered through gavage by LC-DAD-IT-TOF-MS analysis; set-up: dose 50 mg/kg, route oral; conditions: in vivo
[26] = Drug excretion in Sprague-Dawley rat bile assessed as metabolite saikogenin f-27-oic acid level at 50 mg/kg, po administered through gavage by LC-DAD-IT-TOF-MS analysis; set-up: dose 50 mg/kg, route oral; conditions: in vivo
[27] = tested on: Plasma; assay: Drug uptake in Sprague-Dawley rat plasma at 15 mg/kg, iv by LC-DAD-IT-TOF-MS analysis; set-up: dose 15 mg/kg, route intravenous; conditions: in vivo
[28] = Drug excretion in Sprague-Dawley rat bile at 15 mg/kg, iv by LC-DAD-IT-TOF-MS analysis; set-up: dose 15 mg/kg, route intravenous; conditions: in vivo
[29] = tested on: Plasma; assay: Drug metabolism in Sprague-Dawley rat plasma assessed as metabolite hydroxysaikosaponin a formation at 15 mg/kg, iv by LC-DAD-IT-TOF-MS analysis; set-up: dose 15 mg/kg, route intravenous; conditions: in vivo
[30] = Drug excretion in Sprague-Dawley rat feces assessed as metabolite hydroxysaikosaponin a level at 15 mg/kg, iv by LC-DAD-IT-TOF-MS analysis; set-up: dose 15 mg/kg, route intravenous; conditions: in vivo
[31] = Drug excretion in Sprague-Dawley rat bile assessed as metabolite prosaikogenin f level at 15 mg/kg, iv by LC-DAD-IT-TOF-MS analysis; set-up: dose 15 mg/kg, route intravenous; conditions: in vivo
[32] = Drug excretion in Sprague-Dawley rat urine assessed as metabolite prosaikogenin f level at 15 mg/kg, iv by LC-DAD-IT-TOF-MS analysis; set-up: dose 15 mg/kg, route intravenous; conditions: in vivo
[33] = tested on: Plasma; assay: Drug metabolism in Sprague-Dawley rat plasma assessed as metabolite saikogenin f formation at 15 mg/kg, iv by LC-DAD-IT-TOF-MS analysis; set-up: dose 15 mg/kg, route intravenous; conditions: in vivo
[34] = Drug excretion in Sprague-Dawley rat bile assessed as metabolite saikogenin f level at 15 mg/kg, iv by LC-DAD-IT-TOF-MS analysis; set-up: dose 15 mg/kg, route intravenous; conditions: in vivo
[35] = Drug excretion in Sprague-Dawley rat feces assessed as metabolite saikogenin f level at 15 mg/kg, iv by LC-DAD-IT-TOF-MS analysis; set-up: dose 15 mg/kg, route intravenous; conditions: in vivo
[36] = tested on: Plasma; assay: Drug metabolism in Sprague-Dawley rat plasma assessed as metabolite 3-keto-saikogenin f formation at 15 mg/kg, iv by LC-DAD-IT-TOF-MS analysis; set-up: dose 15 mg/kg, route intravenous; conditions: in vivo
[37] = Drug excretion in Sprague-Dawley rat bile assessed as metabolite 3-keto-saikogenin f level at 15 mg/kg, iv by LC-DAD-IT-TOF-MS analysis; set-up: dose 15 mg/kg, route intravenous; conditions: in vivo
[38] = Drug excretion in Sprague-Dawley rat urine assessed as metabolite 3-keto-saikogenin f level at 15 mg/kg, iv by LC-DAD-IT-TOF-MS analysis; set-up: dose 15 mg/kg, route intravenous; conditions: in vivo

Q: What does the source list for `C[C@H]1O[C@@H](O[C@H]2CC[C@@]3(C)[C@@H](CC[C@]4(C)[C@@H]3C=C[C@]35OC[C@@]6(CCC(C)(C)C[C@H]63)[C@@H](O)C[C@]54C)[C@]2(C)CO)[C@H](O)[C@@H](O[C@@H]2O[C@H](CO)[C@@H](O)[C@H](O)[C@H]2O)[C@H]1O` [SAIKOSAPONIN A]?
A: Drug excretion [1]: metabolite_detected; Drug excretion [2]: metabolite_detected; Retention_time [3]: 39.9 min; Drug excretion [4]: metabolite_not_detected; Drug excretion [5]: metabolite_not_detected; Drug excretion [6]: metabolite_not_detected; Drug metabolism [7]: metabolite_not_detected; Drug excretion [8]: metabolite_detected; Drug excretion [9]: metabolite_detected; Drug metabolism [10]: metabolite_not_detected; Drug excretion [11]: metabolite_not_detected; Drug excretion [12]: metabolite_not_detected; Drug metabolism [13]: metabolite_detected; Drug excretion [14]: metabolite_detected; Drug excretion [15]: metabolite_detected; Drug excretion [16]: metabolite_not_detected; Drug excretion [17]: metabolite_detected; Drug excretion [18]: metabolite_detected; Drug metabolism [19]: metabolite_not_detected; Drug excretion [20]: metabolite_detected; Drug excretion [21]: metabolite_detected; Drug metabolism [22]: metabolite_not_detected; Drug excretion [23]: metabolite_not_detected; Drug excretion [24]: metabolite_detected; Drug excretion [25]: metabolite_detected; Drug excretion [26]: metabolite_not_detected; Drug uptake [27]: Active; Drug excretion [28]: metabolite_detected; Drug metabolism [29]: metabolite_not_detected; Drug excretion [30]: metabolite_not_detected; Drug excretion [31]: metabolite_detected; Drug excretion [32]: metabolite_detected; Drug metabolism [33]: metabolite_not_detected; Drug excretion [34]: metabolite_not_detected; Drug excretion [35]: metabolite_detected; Drug metabolism [36]: metabolite_not_detected; Drug excretion [37]: metabolite_not_detected; Drug excretion [38]: metabolite_not_detected
